These results are taken from patent US11541055B2, “Inhibitors of human immunodeficiency virus replication” (ViiV Healthcare UK (No. 5) LIMITED, priority 2018, dated 2023).

Data set [1] in a line: Compound cytotoxicity, XTT-based colorimetric assay. As to conditions: human; uninfected MT2 cells, day 4, XTT. Format: cell-based. On the procedure:
Compound cytotoxicity and the corresponding CC50 values were determined using the same protocol as described in the antiviral assay except that uninfected cells were used. Cytotoxicity was assessed on day 4 in uninfected MT2 cells by using a XTT (2,3-bis[2-Methoxy-4-nitro-5-sulfophenyl]-2H-tetrazolium-5-carboxyanilide inner salt)-based colorimetric assay (Sigma-Aldrich, St Louis, Mo.).

In data set [2] the test system is recombinant NL4-3 virus (Renilla luciferase) in MT-2 cells. Description: HIV cell culture assay (antiviral activity, luciferase readout). The note with it: Renilla, NL43. Format: cell-based. How it is done:
HIV cell culture assay—MT-2 cells, 293T cells and the proviral DNA clone of NL4-3 virus were obtained from the NIH AIDS Research and Reference Reagent Program. MT-2 cells were propagated in RPMI 1640 media supplemented with 10% heat inactivated fetal bovine serum (FBS), […]. The 293T cells were propagated in DMEM media supplemented with 10% heat inactivated FBS, […] penicillin G and […] streptomycin. A recombinant NL40.3 proviral clone, in which a section of the nef gene was replaced with the Renilla luciferase gene, was used to make the reference virus used in these studies. The recombinant virus was prepared through transfection of the recombinant NL4-3 proviral clone into 293T cells using Transit-293 Transfection Reagent from Minis Bio LLC (Madison, Wis.). Supernatent was harvested after 2-3 days and the amount of virus present was titered in MT-2 cells using luciferase enzyme activity as a marker by measuring luciferase enzyme activity. Luciferase was quantitated using the EnduRen Live Cell Substrate from Promega (Madison, Wis.). Antiviral activities of compounds toward the recombinant virus were quantified by measuring luciferase activity in MT-2 cells infected for 4-5 days with the recombinant virus in the presence of serial dilutions of the compound.
The 50% effective concentration (EC50) was calculated by using the exponential form of the median effect equation where (Fa)=1/[1+(ED50/drug conc.)m] (Johnson V A, Byington R T. Infectivity Assay. In Techniques in HIV Research. ed. Aldovini A, Walker B D. 71-76. New York: Stockton Press. 1990). The 50% inhibitory concentration (EC50) was calculated by using the exponential form of the median effect equation where percent inhibition=1/[1+(EC50/drug concentration)m], where m is a parameter that reflects the slope of the concentration-response curve.

For the compound `Cc1ccc(F)c(-c2ccc3c(=O)n(-c4ccc(Cl)c5c(NS(=O)(=O)C6CC6)nn(CC(F)F)c45)c([C@H](Cc4cc(F)cc(F)c4)NC(=O)Cn4nc(C(F)F)c5c4C(F)(F)[C@@H]4C[C@H]54)nc3c2)n1` (atropisomer, axis not shown) [Example 96, N-[(1S)-1-{3-[4-chloro-3-cyclopropanesulfonamido-1-(2,2-difluoroethyl)-1H-indazol-7-yl]-7-(3-fluoro-6-methylpyridin-2-yl)-4-oxo-3,4-dihydroquinazolin-2-yl}-2-(3,5-difluorophenyl)ethyl]-2-[(2S,4R)-9-(difluoromethyl)-5,5-difluoro-7,8-diazatricyclo[4.3.0.0^2,^4]nona-1(6),8-dien-7-yl]acetamide], the cytotoxic concentration (CC50) (in general, the concentration that lowers cell viability or growth by half) at 4 days in data set [1] is over 500 nM. Also, the 50% effective concentration (EC50) – broadly, the concentration giving half of the maximal effect – in data set [2] worked out at 0.24 nM.
`Cc1ncc(-c2ccc3c(=O)n(-c4ccc(Cl)c5c(NS(=O)(=O)C6CC6)nn(CC(F)F)c45)c([C@H](Cc4cc(F)cc(F)c4)NC(=O)Cn4nc(C(F)F)c5c4C(F)(F)[C@@H]4C[C@H]54)nc3c2)s1` (atropisomer, axis not shown) [Example 97, N-[(1S)-1-{3-[4-chloro-3-cyclopropanesulfonamido-1-(2,2-difluoroethyl)-1H-indazol-7-yl]-7-(2-methyl-1,3-thiazol-5-yl)-4-oxo-3,4-dihydroquinazolin-2-yl}-2-(3,5-difluorophenyl)ethyl]-2-[(2S,4R)-9-(difluoromethyl)-5,5-difluoro-7,8-diazatricyclo[4.3.0.0^2,^4]nona-1(6),8-dien-7-yl]acetamide]: in data set [1], the half-maximal cytotoxic concentration (CC50) at 4 days is over 500 nM. In addition, the EC50 in data set [2] was found to be 0.22 nM.
The like results for `COc1cnc(-c2ccc3c(=O)n(-c4ccc(Cl)c5c(NS(=O)(=O)C6CC6)nn(CC(F)F)c45)c([C@H](Cc4cc(F)cc(F)c4)NC(=O)Cn4nc(C(F)F)c5c4C(F)(F)[C@@H]4C[C@H]54)nc3c2)nc1` (atropisomer, axis not shown) [Example 98, N-[(1S)-1-{3-[4-chloro-3-cyclopropanesulfonamido-1-(2,2-difluoroethyl)-1H-indazol-7-yl]-7-(5-methoxypyrimidin-2-y1)-4-oxo-3,4-dihydroquinazolin-2-yl}-2-(3,5-difluorophenyl)ethyl]-2-[(2S,4R)-9-(difluoromethyl)-5,5-difluoro-7,8-diazatricyclo[4.3.0.0^2,^4]nona-1(6),8-dien-7-yl]acetamide] were, in that order, over 500 nM and 0.16 nM.
`COc1ncc(-c2ccc3c(=O)n(-c4ccc(Cl)c5c(NS(=O)(=O)C6CC6)nn(CC(F)F)c45)c([C@H](Cc4cc(F)cc(F)c4)NC(=O)Cn4nc(C(F)F)c5c4C(F)(F)[C@@H]4C[C@H]54)nc3c2)cn1` (atropisomer, axis not shown) [Example 99] returned a cytotoxic concentration (CC50) at 4 days in data set [1] of over 500 nM. The EC50 in data set [2] was found to be 0.089 nM.
The like results for `Cc1nccc(-c2ccc3c(=O)n(-c4ccc(Cl)c5c(NS(C)(=O)=O)nn(CC(F)(F)F)c45)c([C@H](Cc4cc(F)cc(F)c4)NC(=O)Cn4nc(C(F)F)c5c4C(F)(F)[C@@H]4C[C@H]54)nc3c2)n1` (atropisomer, axis not shown) [Example 100, N-[(1S)-1-{3-[4-chloro-3-methanesulfonamido-1-(2,2,2-trifluoroethyl)-1H-indazol-7-yl]-7-(2-methylpyrimidin-4-yl)-4-oxo-3,4-dihydroquinazolin-2-yl}-2-(3,5-difluorophenyl)ethyl]-2-[(2S,4R)-9-(difluoromethyl)-5,5-difluoro-7,8-diazatricyclo[4.3.0.0^2,^4]nona-1(6),8-dien-7-yl]acetamide] were, in that order, over 500 nM and 0.042 nM.
For `Cc1cc(C)nc(-c2ccc3c(=O)n(-c4ccc(Cl)c5c(NS(C)(=O)=O)nn(CC(F)(F)F)c45)c([C@H](Cc4cc(F)cc(F)c4)NC(=O)Cn4nc(C(F)F)c5c4C(F)(F)[C@@H]4C[C@H]54)nc3c2)c1` (atropisomer, axis not shown) [Example 101, N-[(1S)-1-{3-[4-chloro-3-methanesulfonamido-1-(2,2,2-trifluoroethyl)-1H-indazol-7-yl]-7-(4,6-dimethylpyridin-2-yl)-4-oxo-3,4-dihydroquinazolin-2-yl}-2-(3,5-difluorophenyl)ethyl]-2-[(2S,4R)-9-(difluoromethyl)-5,5-difluoro-7,8-diazatricyclo[4.3.0.0^2,^4]nona-1(6),8-dien-7-yl]acetamide] the same measures were over 500 nM and 0.21 nM.
In turn, `CS(=O)(=O)Nc1nn(CC(F)(F)F)c2c(-n3c([C@H](Cc4cc(F)cc(F)c4)NC(=O)Cn4nc(C(F)F)c5c4C(F)(F)[C@@H]4C[C@H]54)nc4cc(-c5nccc(C(F)(F)F)n5)ccc4c3=O)ccc(Cl)c12` (atropisomer, axis not shown) [Example 102] gave a CC50 at 4 days in data set [1] of over 500 nM. Besides, the EC50 in data set [2] worked out at 0.13 nM.
The like results for `Cc1cc(-c2ccc3c(=O)n(-c4ccc(Cl)c5c(NS(C)(=O)=O)nn(CC(F)(F)F)c45)c([C@H](Cc4cc(F)cc(F)c4)NC(=O)Cn4nc(C(F)F)c5c4C(F)(F)[C@@H]4C[C@H]54)nc3c2)nc(C)n1` (atropisomer, axis not shown) [Example 103, N-[(1S)-1-{3-[4-chloro-3-methanesulfonamido-1-(2,2,2-trifluoroethyl)-1H-indazol-7-yl]-7-(2,6-dimethylpyrimidin-4-yl)-4-oxo-3,4-dihydroquinazolin-2-yl}-2-(3,5-difluorophenyl)ethyl]-2-[(2S,4R)-9-(difluoromethyl)-5,5-difluoro-7,8-diazatricyclo[4.3.0.0^2,^4]nona-1(6),8-dien-7-yl]acetamide] were, in that order, over 500 nM and 0.059 nM.
The compound `CS(=O)(=O)Nc1nn(CC(F)(F)F)c2c(-n3c([C@H](Cc4cc(F)cc(F)c4)NC(=O)Cn4nc(C(F)F)c5c4C(F)(F)[C@@H]4C[C@H]54)nc4cc(-c5nccc(C(F)F)n5)ccc4c3=O)ccc(Cl)c12` (atropisomer, axis not shown) [Example 104, N-[(1S)-1-{3-[4-chloro-3-methanesulfonamido-1-(2,2,2-trifluoroethyl)-1H-indazol-7-yl]-7-[4-(difluoromethyl)pyrimidin-2-yl]-4-oxo-3,4-dihydroquinazolin-2-yl}-2-(3,5-difluorophenyl)ethyl]-2-[(2S,4R)-9-(difluoromethyl)-5,5-difluoro-7,8-diazatricyclo[4.3.0.0^2,^4]nona-1(6),8-dien-7-yl]acetamide] came in with a CC50 at 4 days in data set [1] of over 500 nM. Besides, in data set [2], the EC50 stood at 0.063 nM.
The like results for `Cc1ccc(-c2ccc3c(=O)n(-c4ccc(Cl)c5c(NS(C)(=O)=O)nn(CC(F)(F)F)c45)c([C@H](Cc4cc(F)cc(F)c4)NC(=O)Cn4nc(C(F)F)c5c4C(F)(F)[C@@H]4C[C@H]54)nc3c2)nn1` (atropisomer, axis not shown) [Example 106, N-[(1S)-1-{3-[4-chloro-3-methanesulfonamido-1-(2,2,2-trifluoroethyl)-1H-indazol-7-yl]-7-(6-methylpyridazin-3-yl)-4-oxo-3,4-dihydroquinazolin-2-yl}-2-(3,5-difluorophenyl)ethyl]-2-[(2S,4R)-9-(difluoromethyl)-5,5-difluoro-7,8-diazatricyclo[4.3.0.0^2,^4]nona-1(6),8-dien-7-yl]acetamide] were, in that order, over 500 nM and 0.043 nM.
